Measurements: patent US11565998B2, “Succinate prodrug, compositions containing the succinate prodrug and uses thereof” (ABLIVA AB, priority 2019, dated 2023)

How the values were obtained:
Type in all cases: physicochemical
[1] = Carbonate instability (calcium and carbonate sources); settings: for Percentage of Compound 1 remaining compared to T = 0: 1 mg/ml
Method: Compound 1 Batch 14 (2-3 mg) was dissolved in HPLC grade water at room temperature (1 mg/ml) containing different sources of calcium and carbonate ions (two concentrations for each source, with the pH recorded) and samples were taken at different time intervals for HPLC analysis.
Calcium and carbonate sources used in the form of inorganic salts: […]

[2] = Mineral instability (inorganic salts in water); settings: for Percentage of Compound 1 remaining compared to T = 0: 1 mg/ml, room temperature
Method: Compound 1 Batch 14 (2-3 mg) was dissolved in water for injection at room temperature (WFI) (1 mg/ml) containing different sources of minerals commonly found in tap water (with different accompanying counter ions to be able to distinguish differences between the effects of cation or anion) and samples were taken at different time intervals for HPLC analysis.
Mineral sources used in the form of inorganic salts:
CuCl2, CaCl2), NiSO4, CoCl2, NH4Cl, MnCl2, NaF, NaNO3, CuSO4, Ca(NO3)2, AlSO4, CaCO3, (NH4)2CO3.

[3] = Stability in purified (HPLC grade) or non-purified (tap) water; settings: room temperature, 6 days
Method: A side-by-side experiment of the stability of Compound 1 in ‘purified’ HPLC grade water (Fisher Scientific) and ‘non-purified’ tap water was set up. In brief, 1 mg/mL solutions of Compound 1 were generated in ‘purified’ HPLC grade water (Fisher Scientific) and ‘non-purified’ tap water. These were incubated at room temperature for up to 10 days. Concentration and purity of Compound 1 was assessed over time by HPLC in comparison to a standard (AUC of 8.21 RT peak at 230 nm for calculated concentration and AUC of Compound 1 peak vs impurities for purity analysis). Data presented is the average of two samples.

Percentage of Compound 1 remaining compared to T = 0 ([1]; (NH4)2CO3 (3.4 mM, pH 8.9), batch 14, day 0): 100%
Percentage of Compound 1 remaining compared to T = 0 ([1]; (NH4)2CO3 (3.4 mM, pH 8.9), batch 14, day 3): 99.6%
Percentage of Compound 1 remaining compared to T = 0 ([1]; (NH4)2CO3 (3.4 mM, pH 8.9), batch 14, day 17): 85.5%
Percentage of Compound 1 remaining compared to T = 0 ([1]; (NH4)2CO3 (3.4 mM, pH 9.3), batch 14, day 0): 100%
Percentage of Compound 1 remaining compared to T = 0 ([1]; (NH4)2CO3 (3.4 mM, pH 9.3), batch 14, day 3): 98.9%
Percentage of Compound 1 remaining compared to T = 0 ([1]; (NH4)2CO3 (3.4 mM, pH 9.3), batch 14, day 17): 57.5%
Percentage of Compound 1 remaining compared to T = 0 ([1]; Ca(NO3)2 (0.34 mM, pH 7.3), batch 14, day 0): 100%
Percentage of Compound 1 remaining compared to T = 0 ([1]; Ca(NO3)2 (0.34 mM, pH 7.3), batch 14, day 3): 101%
Percentage of Compound 1 remaining compared to T = 0 ([1]; Ca(NO3)2 (0.34 mM, pH 7.3), batch 14, day 17): 97.5%
Percentage of Compound 1 remaining compared to T = 0 ([1]; Ca(NO3)2 (3.4 mM, pH 7.2), batch 14, day 0): 100%
Percentage of Compound 1 remaining compared to T = 0 ([1]; Ca(NO3)2 (3.4 mM, pH 7.2), batch 14, day 3): 100%
Percentage of Compound 1 remaining compared to T = 0 ([1]; Ca(NO3)2 (3.4 mM, pH 7.2), batch 14, day 17): 97.1%
Percentage of Compound 1 remaining compared to T = 0 ([1]; CaCO3 (0.34 mM, pH 7.6), batch 14, day 0): 100%
Percentage of Compound 1 remaining compared to T = 0 ([1]; CaCO3 (0.34 mM, pH 7.6), batch 14, day 3): 93.8%
Percentage of Compound 1 remaining compared to T = 0 ([1]; CaCO3 (0.34 mM, pH 7.6), batch 14, day 17): 50.4%
Percentage of Compound 1 remaining compared to T = 0 ([1]; CaCO3 (3.4 mM, pH 7.6), batch 14, day 0): 100%
Percentage of Compound 1 remaining compared to T = 0 ([1]; CaCO3 (3.4 mM, pH 7.6), batch 14, day 3): 93.6%
Percentage of Compound 1 remaining compared to T = 0 ([1]; CaCO3 (3.4 mM, pH 7.6), batch 14, day 17): 49.5%
Percentage of Compound 1 remaining compared to T = 0 ([1]; CaCl2 (0.34 mM, pH 7.4), batch 14, day 0): 100%
Percentage of Compound 1 remaining compared to T = 0 ([1]; CaCl2 (0.34 mM, pH 7.4), batch 14, day 3): 98.4%
Percentage of Compound 1 remaining compared to T = 0 ([1]; CaCl2 (0.34 mM, pH 7.4), batch 14, day 17): 95.1%
Percentage of Compound 1 remaining compared to T = 0 ([1]; CaCl2 (3.4 mM, pH 7.5), batch 14, day 0): 100%
Percentage of Compound 1 remaining compared to T = 0 ([1]; CaCl2 (3.4 mM, pH 7.5), batch 14, day 3): 101%
Percentage of Compound 1 remaining compared to T = 0 ([1]; CaCl2 (3.4 mM, pH 7.5), batch 14, day 17): 96.7%
Percentage of Compound 1 remaining compared to T = 0 ([1]; HPLC water (control, pH 6.5), batch 14, day 0): 100%
Percentage of Compound 1 remaining compared to T = 0 ([1]; HPLC water (control, pH 6.5), batch 14, day 3): 94.3%
Percentage of Compound 1 remaining compared to T = 0 ([1]; HPLC water (control, pH 6.5), batch 14, day 17): 91.4%
degradation in aqueous solution with carbonate ions ([1]; vs calcium chloride / nitrate and control): degrades more rapidly
Percentage of Compound 1 remaining compared to T = 0 ([2]; (NH4)2CO3 in water, batch 14, day 0): 100%
Percentage of Compound 1 remaining compared to T = 0 ([2]; (NH4)2CO3 in water, batch 14, day 7): 91.3%
Percentage of Compound 1 remaining compared to T = 0 ([2]; (NH4)2CO3 in water, batch 14, day 14): 87.4%
Percentage of Compound 1 remaining compared to T = 0 ([2]; AlSO4 in water, batch 14, day 0): 100%
Percentage of Compound 1 remaining compared to T = 0 ([2]; AlSO4 in water, batch 14, day 7): 99.8%
Percentage of Compound 1 remaining compared to T = 0 ([2]; AlSO4 in water, batch 14, day 14): 100%
Percentage of Compound 1 remaining compared to T = 0 ([2]; Ca(NO3)2 in water, batch 14, day 0): 100%
Percentage of Compound 1 remaining compared to T = 0 ([2]; Ca(NO3)2 in water, batch 14, day 7): 99.4%
Percentage of Compound 1 remaining compared to T = 0 ([2]; Ca(NO3)2 in water, batch 14, day 14): 98.9%
Percentage of Compound 1 remaining compared to T = 0 ([2]; CaCO3 in water, batch 14, day 0): 100%
Percentage of Compound 1 remaining compared to T = 0 ([2]; CaCO3 in water, batch 14, day 7): 79.5%
Percentage of Compound 1 remaining compared to T = 0 ([2]; CaCO3 in water, batch 14, day 14): 66.0%
Percentage of Compound 1 remaining compared to T = 0 ([2]; CaCl2 in water, batch 14, day 0): 100%
Percentage of Compound 1 remaining compared to T = 0 ([2]; CaCl2 in water, batch 14, day 7): 100%
Percentage of Compound 1 remaining compared to T = 0 ([2]; CaCl2 in water, batch 14, day 14): 97.9%
Percentage of Compound 1 remaining compared to T = 0 ([2]; CoCl2 in water, batch 14, day 0): 100%
Percentage of Compound 1 remaining compared to T = 0 ([2]; CoCl2 in water, batch 14, day 7): 101%
Percentage of Compound 1 remaining compared to T = 0 ([2]; CoCl2 in water, batch 14, day 14): 101%
Percentage of Compound 1 remaining compared to T = 0 ([2]; CuCl2 in water, batch 14, day 0): 100%
Percentage of Compound 1 remaining compared to T = 0 ([2]; CuCl2 in water, batch 14, day 7): 99.5%
Percentage of Compound 1 remaining compared to T = 0 ([2]; CuCl2 in water, batch 14, day 14): 98.3%
Percentage of Compound 1 remaining compared to T = 0 ([2]; CuSO4 in water, batch 14, day 0): 100%
Percentage of Compound 1 remaining compared to T = 0 ([2]; CuSO4 in water, batch 14, day 7): 100%
Percentage of Compound 1 remaining compared to T = 0 ([2]; CuSO4 in water, batch 14, day 14): 99.4%
Percentage of Compound 1 remaining compared to T = 0 ([2]; MnCl2 in water, batch 14, day 0): 100%
Percentage of Compound 1 remaining compared to T = 0 ([2]; MnCl2 in water, batch 14, day 7): 98.9%
Percentage of Compound 1 remaining compared to T = 0 ([2]; MnCl2 in water, batch 14, day 14): 99.2%
Percentage of Compound 1 remaining compared to T = 0 ([2]; NH4Cl in water, batch 14, day 0): 100%
Percentage of Compound 1 remaining compared to T = 0 ([2]; NH4Cl in water, batch 14, day 7): 101%
Percentage of Compound 1 remaining compared to T = 0 ([2]; NH4Cl in water, batch 14, day 14): 99.8%
Percentage of Compound 1 remaining compared to T = 0 ([2]; NaF in water, batch 14, day 0): 100%
Percentage of Compound 1 remaining compared to T = 0 ([2]; NaF in water, batch 14, day 7): 101%
Percentage of Compound 1 remaining compared to T = 0 ([2]; NaF in water, batch 14, day 14): 100%
Percentage of Compound 1 remaining compared to T = 0 ([2]; NaNO3 in water, batch 14, day 0): 100%
Percentage of Compound 1 remaining compared to T = 0 ([2]; NaNO3 in water, batch 14, day 7): 99.2%
Percentage of Compound 1 remaining compared to T = 0 ([2]; NaNO3 in water, batch 14, day 14): 99.4%
Percentage of Compound 1 remaining compared to T = 0 ([2]; NiSO4 in water, batch 14, day 0): 100%
Percentage of Compound 1 remaining compared to T = 0 ([2]; NiSO4 in water, batch 14, day 7): 98.4%
Percentage of Compound 1 remaining compared to T = 0 ([2]; NiSO4 in water, batch 14, day 14): 99.1%
Percentage of Compound 1 remaining compared to T = 0 ([2]; WFl, batch 14, day 0): 100%
Percentage of Compound 1 remaining compared to T = 0 ([2]; WFl, batch 14, day 7): 98.7%
Percentage of Compound 1 remaining compared to T = 0 ([2]; WFl, batch 14, day 14): 97.7%
degradation in aqueous solution with carbonate ions ([2]; vs other mineral salts): degrades more rapidly
degradation (loss in purity and assay) ([3]; (non-purified) tap water): Significant degradation
degradation (loss in purity and assay) ([3]; (purified) HPLC grade water): not observed
SMILES: COC(=O)CCC(=O)SCCNC(C)=O [Compound 1, Methyl 3-[(2-acetylaminoethylthio)carbonyl]propionate]
